Data published in patent US6187572A, “Method of inactivation of viral and bacterial blood contaminants” (Baxter International Inc., priority 1993, dated 2001).
Counter-ions that a name gives are not always drawn. Like-named read-outs stand apart in the source and are kept apart here.

Experiments:
[1] = system: platelets; type: cell-based
Procedure: The viral inactivation values and in vitro properties of platelets subjected to viral inactivation treatment using various derivatives of psoralen are summarized in Table 1.
2 mL PRP samples (plastic disposable petri dishes) containing 0.1 mg/mL
sensitizer were irradiated with UVA for 6 min. (1.19 J/cm^2). The
intensity of UVA radiation at sample position was measured at 3.3
mW/cm^2. The data was obtained from three separate experiments using
different platelet concentrates. Values are mean ± SD.

[2] = system: cell damage; test: Cell damage by derivatives with free hydrogen atoms on the ammonium group; type: cell-based; settings: words
[3] = system: .phi.6 phage; test: Viral inactivation in single unit platelet concentrates (UVA); type: cell-based; settings: light or radiation study, 10 min
Procedure: (§1) Single unit platelet concentrates were obtained 24 hours after collection from certified blood banks. The platelets were subjected to soft spin to remove residual RBC and about 6 logs of .phi.6 phage and sensitizer 8B were added in PBS solution to obtain 0.03 mg/ml final sensitizer concentration. The samples were transferred to Stericonpolyolefin bag (which transmits 60% of UVA light) and irradiated from top (3.6 mW/cm^2)and bottom (3.4 mW/cm^2) in a home made reactor for 10 min. The bags were continuously mixed on extended glass platform attached to orbital shaker. The viral inactivation values and in vitro properties of platelet concentrates were monitored for 2 days after the treatment.
(§2) Single units of platelet concentrates in Cryocyte ™ bag containing 0.03
(§3) mg/mL #8B sensitizer (Appendix I) were irradiated from top (3.6
(§4) mW/cm^2) and bottom (3.4 mW/cm^2) using UVA radiation in a home
(§5) made reactor for 10 min (4.2 J/cm^2). After the treatment platelet
(§6) concentrates were transferred into original platelet containers and stored
(§7) in a platelet incubator for indicated period of time.
(§8) Platelet viability assays were carried out immediately after treatment and
following 24 & 48 hours storage in a platelet incubator. The viral
(§9) reduction in treated samples was determined by the plaque assay. The
(§10) values are mean ±S.D (n = 3)

[4] = system: red cells; test: Red cell in vitro properties after viral inactivation treatment (UVA); type: cell-based; parameters: MCV / MCH / MCHC: unit not given here; settings: for % Hemichrome / % Met Hb. / % Oxy Hb. / MCH / MCHC / MCV / DI Max % control: Treated; for % Hemichrome / % Met Hb. / % Oxy Hb. / MCH / MCHC / MCV: UVA 6 hours; for DI Max % control: ektacytometry
Procedure: (§11) Units of packed red cells were transferred to Stericon red cell freezing bags and the hematocrits were adjusted to 60% with PBS. The samples were spiked with 5×10^6 PFU/ml .phi.6 phage and 0.3 mg/mL sensitizer 8B. The contents of the bag were exposed to UVA light from top (3.6 mW/cm^2) and bottom (3.4 mW/cm^2) for 6 hours (151.2 J/cm^2). The samples were mixed continuously during UVA exposure on an orbital shaker. The final viral titre in the sample was determined by the plaque method. In vitro biochemical and biophysical properties of treated red cells were monitored for 7 days following the treatment.
DI Max, Deformability index by ektacytometry
(§12) Viral inactivation treatment was carried out in packed red cells (full
(§13) units, 60% Hct.) containing model virus (.phi.6 phage) and 8B sensitizer
(§14) (0.3 mg/mL) in a Sericon red cells freezing bag (altered). The bags were
(§15) irradiated from top (3.6 mW/cm^2) and bottom (3.4 mW/cm^2) in a
(§16) home made reactor for 6 hours (151.2 J/cm^2). The sample was mixed
(§17) continuously during UVA exposure on a orbital shaker.
Data was collected from 3 separate experiments and the values are mean

[5] = system: salmonella mutants; test: Ames mutagenicity, overall; type: cell-based, Salmonella typhimurium; settings: 0.6 mg/ml; words
Procedure: (§18) The standard Ames mutagenicity test using salmonella mutants was performed on brominated sensitizer 8B at 0.6 mg/ml.

[6] = system: single unit platelet concentrates; test: Platelet in vitro properties in single unit platelet concentrates after UVA treatment; type: cell-based; parameters: ADP Agg. / Collagen / HSR: unit not given here; settings: for ADP Agg. / Cell count / Collagen / HSR / Morphology / pH: Treated, 0.03 mg/mL, UVA 10 min
Procedure: as §1, §2, §3, §4, §5, §6, §7, §8, §9, §10

[7] = system: .phi.6 phage; test: Comparison of viral inactivation efficiencies of brominated and non-brominated sensitizers in platelets (UVA); type: cell-based; settings: 8B versus 8C, 0.1 mg/ml, UVA 3.3 mW/cm^2
Procedure: To test the viral inactivation efficiency of brominated sensitizers, platelet preparations (2 ml, PRP) were spiked with .phi.6 phage and brominated psoralen (8B) and non-brominated psoralen(8C) were added to obtain final sensitizer concentration of 0.1 mg/ml. The samples were exposed to UVA light in a home made reactor consisting of 4 UVA lamps for the indicated time periods. The petri dishes containing samples were mixed on an orbital shaker during UVA exposure. The UVA light intensity at the sample position was measured at 3.3 mW/cm^2. The residual viral titre after each time point was measured by plaque method. The viral reduction values are illustrated in FIG. 26.

[8] = system: .phi.6 phage; test: Viral inactivation in red blood cells (UVA, full units); type: cell-based; settings: Erythrocyte, light or radiation study
Procedure: as §11, §12, §13, §14, §15, §16, §17

[9] = system: Salmonella typhimurium TA1537; test: Ames mutagenicity, plate incorporation assay; type: cell-based
Procedure: as §18

[10] = system: Salmonella typhimurium TA98; test: Ames mutagenicity, plate incorporation assay; type: cell-based
Procedure: as §18

[11] = system: Salmonella typhimurium TA1538; test: Ames mutagenicity, plate incorporation assay; type: cell-based
Procedure: as §18

[12] = system: Salmonella typhimurium TA1535; test: Ames mutagenicity, plate incorporation assay; type: cell-based
Procedure: as §18

[13] = system: Salmonella typhimurium TA100; test: Ames mutagenicity, plate incorporation assay; type: cell-based
Procedure: as §18

[14] = system: λ; test: Inactivation of viruses in human plasma and bovine serum with UV activation; type: cell-based, λ phage; settings: light or radiation study, 0.5 h, Fetal bovine serum, 0.03 mg/ml, UVA 30 min (8.4 J/cm^2), read-out: Viral Reduction (log)
Procedure: Viral inactivation in FBS was carried out in 100 ml serum samples in 225 cm^2 tissue culture flask in the presence of sensitizer 8B (0.03 mg/ml). The sample was exposed to UVA light from top (3.6 mW/cm^2) and bottom (3.4 mW/cm^2) while continuously mixing on an orbital shaker for 30 min. (8.4 J/cm^2). Human plasma was irradiated in a Pyrex glass photolysis cell in the presence of sensitizer 8 (0.1 mg/ml) for 5 min. Inactivation of various bacteriophages were carried out using brominated psoralens in combination with UVA light. The results in Table 5 clearly indicate that 5-7 logs of viral reduction was obtained with various phage (enveloped and non-enveloped) in human plasma fractions and fetal bovine serum products.

With `Cc1oc2c(C)c3oc(=O)cc(C)c3cc2c1CN` [AMT, 4'-aminomethyl-4,5',8-trimethylpsoralen] the “hypotonic shock response (HSR) and ADP aggregation response relative to the control” value [1] was “substantial reduction” and the cell damage [2] was “unacceptable levels of cell damage”.
`CC[N+](CC)(CC)CCCOc1c2occc2c(Br)c2ccc(=O)oc12` [Sensitizer #8B, 5-Bromo-8 (γ-Triethylaminopropyloxy) Psoralen Hydrochloride] was tested, and the log reduction at 30 µg/mL ([3]; Treated, 0 Hour, 0.03 mg/mL, UVA 10 min (4.2 J/cm^2), n = 4, read-out: V.I) was 5.3 ± 0.2, the log reduction at 30 µg/mL ([3]; read-out: viral reduction) was greater than 5.3 and the “in vitro biochemical and biophysical properties of red cells” value ([4]; Example 16 text, words) was “without any significant alterations”. The “% Hemichrome” value ([4]; Day 1, 0.3 mg/mL) was 1.9 ± 1.5%, the “% Met Hb.” value ([4]; Day 1, 0.3 mg/mL) was 2.9 ± 1.5% and the “% Oxy Hb.” value ([4]; Day 1, 0.3 mg/mL) was 95.2 ± 0.1%. The MCH ([4]; Day 1, 0.3 mg/mL) was 30.9 ± 0.1, the MCHC ([4]; Day 1, 0.3 mg/mL) was 34.9 ± 0.4 and the MCV ([4]; Day 1, 0.3 mg/mL) was 88.8 ± 2.5. The “DI Max % control” value ([4]; Day 1, 0.3 mg/mL) was 97.4 ± 3.6 % control, the “% Hemichrome” value ([4]; Day 2, 0.3 mg/mL) was 0.6 ± 0.9% and the “% Met Hb.” value ([4]; Day 2, 0.3 mg/mL) was 1.7 ± 1.7%. For the same molecule, the “% Oxy Hb.” value ([4]; Day 2, 0.3 mg/mL) was 97.7 ± 1.7%, the MCH ([4]; Day 2, 0.3 mg/mL) was 30.3 ± 0.4 and the MCHC ([4]; Day 2, 0.3 mg/mL) was 33.8 ± 0.9. For the same molecule, the MCV ([4]; Day 2, 0.3 mg/mL) was 89.8 ± 1.7, the “DI Max % control” value ([4]; Day 2, 0.3 mg/mL) was 99.6 ± 3.8 % control and the “% Hemichrome” value ([4]; Day 7, 0.3 mg/mL) was 0.2 ± 0.2%. For the same molecule, the “% Met Hb.” value ([4]; Day 7, 0.3 mg/mL) was 1.4 ± 1.2%, the “% Oxy Hb.” value ([4]; Day 7, 0.3 mg/mL) was 98.5 ± 1.0% and the MCH ([4]; Day 7, 0.3 mg/mL) was 30.1 ± 0.8. For the same molecule, the MCHC ([4]; Day 7, 0.3 mg/mL) was 33.6 ± 1.6, the MCV ([4]; Day 7, 0.3 mg/mL) was 89.8 ± 1.7 and the “DI Max % control” value ([4]; Day 7, 0.3 mg/mL) was 99.0 ± 5.9 % control. The mutagenicity [5] was “non-mutagenic”, the “platelet in vitro properties” value ([6]; Example 15 text, words) was “excellent retention of platelet in vitro properties” and the “ADP Agg.” value ([6]; 0 Hour) was 43 ± 12. The Cell count ([6]; 0 Hour) was 474 ± 20, the Collagen ([6]; 0 Hour) was 72 ± 3 and the HSR ([6]; 0 Hour) was 65 ± 8. For the same molecule, the Morphology ([6]; 0 Hour) was 233 ± 17, the pH ([6]; 0 Hour) was 7.2 ± 0.1 and the “ADP Agg.” value ([6]; 24 Hours) was 34 ± 19. For the same molecule, the Cell count ([6]; 24 Hours) was 499 ± 50, the Collagen ([6]; 24 Hours) was 65 ± 3 and the HSR ([6]; 24 Hours) was 65 ± 6. For the same molecule, the Morphology ([6]; 24 Hours) was 230 ± 19, the pH ([6]; 24 Hours) was 7.1 ± 0.2 and the Collagen ([6]; 43 Hours) was 60 ± 4. For the same molecule, the pH ([6]; 43 Hours) was 6.8 ± 0.1, the HSR ([6]; 48 Hours) was 70 ± 6 and the “improvement in the level of viral inactivation (brominated versus non-brominated)” value [7] was no more than 400 fold. For the same molecule, the log reduction at 300 µg/mL ([8]; 6 h, read-out: viral reduction) was greater than 6.6, the log reduction at 300 µg/mL ([8]; Treated, Day 1, 0.3 mg/mL, UVA 6 hours (151.2 J/cm^2), read-out: Viral Reduction (log)) was 6.6 ± 0.1 and the “Number of Revertan Colonies” value ([9]; TA1537, with S-9, average of duplicate plates) was 26. The “Number of Revertan Colonies” value ([9]; TA1537, without S-9, average of duplicate plates) was 36, the “Number of Revertan Colonies” value ([10]; TA98, with S-9, average of duplicate plates) was 83 and the “Number of Revertan Colonies” value ([10]; TA98, without S-9, average of duplicate plates) was 55. The “Number of Revertan Colonies” value ([11]; TA1538, with S-9, average of duplicate plates) was 25, the “Number of Revertan Colonies” value ([11]; TA1538, without S-9, average of duplicate plates) was 22 and the “Number of Revertan Colonies” value ([12]; TA1535, with S-9, average of duplicate plates) was 197. The “Number of Revertan Colonies” value ([12]; TA1535, without S-9, average of duplicate plates) was 173, the “Number of Revertan Colonies” value ([13]; TA100, with S-9, average of duplicate plates) was 245 and the “Number of Revertan Colonies” value ([13]; TA100, without S-9, average of duplicate plates) was 164. For the same molecule, the log reduction at 30 µg/mL [14] was 6.6.
